From publication doi:10.1101/2025.05.21.655333v1, “Role of glutamate 292 and lysine 331 in catalysis for the flavoenzyme (S)-6-hydroxynicotine oxidase from Shinella sp. HZN7” (biorxiv, 2025)

Target: T1, NctB (Shinella sp. HZN7, UniProt A0A075BSX9)
T1 construct: synthetic gene in pET29b (NdeI/XhoI), C-terminal His tag, expressed in E. coli BL21(DE3); FAD-containing flavoenzyme
Assay: absorbance spectra before and after SDS/heat release of FAD
Type: binding
Settings: pH 7.5; prosthetic group co-purified with the enzyme

T1 sequence (A0A075BSX9 whole entry): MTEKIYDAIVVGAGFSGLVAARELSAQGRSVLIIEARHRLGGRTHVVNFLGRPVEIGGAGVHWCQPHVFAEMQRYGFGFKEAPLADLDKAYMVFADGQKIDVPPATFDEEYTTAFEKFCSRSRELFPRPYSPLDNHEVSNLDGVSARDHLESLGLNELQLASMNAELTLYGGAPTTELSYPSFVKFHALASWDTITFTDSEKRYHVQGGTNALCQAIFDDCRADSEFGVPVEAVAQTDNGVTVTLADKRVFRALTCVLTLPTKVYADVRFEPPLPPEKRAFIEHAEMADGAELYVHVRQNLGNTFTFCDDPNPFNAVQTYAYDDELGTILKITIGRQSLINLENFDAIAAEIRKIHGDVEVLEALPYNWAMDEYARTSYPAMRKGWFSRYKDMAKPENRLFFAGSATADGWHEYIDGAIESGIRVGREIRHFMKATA

Cc1cc2nc3c(=O)[nH]c(=O)nc-3n(C[C@H](O)[C@H](O)[C@H](O)COP(=O)(O)OP(=O)(O)OC[C@H]3O[C@@H](n4cnc5c(N)ncnc54)[C@H](O)[C@@H]3O)c2cc1C [flavin adenine dinucleotide]
absorbance spectra before and after SDS/heat release of FAD: The extinction coefficient of FAD bound to NctB was then calculated
